# Test results from PubChem BioAssay (NCI).
#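 Following 48 hours of exposure in 96-well plates, responses at five concentrations were used to interpolate endpoints linearly. At the GI50, growth is halved. TGI is the concentration that stops growth completely.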
# Key:
# Test in all cases: NCI tumour cell line growth inhibition, 48 h
# COLO 205 colon = test system: COLO 205 colon
# HCT-116 colon = test system: HCT-116 colon
# MDA-MB-231 breast = test system: MDA-MB-231 breast
# SK-MEL-2 melanoma = test system: SK-MEL-2 melanoma
# OVCAR-4 ovarian = test system: OVCAR-4 ovarian
# MDA-MB-435 = test system: MDA-MB-435
# ACHN renal = test system: ACHN renal
# 786-0 renal = test system: 786-0 renal
# SF-268 CNS = test system: SF-268 CNS
# UACC-62 melanoma = test system: UACC-62 melanoma
# HOP-92 NSCLC = test system: HOP-92 NSCLC
# HS 578T breast = test system: HS 578T breast
# RPMI-8226 leukemia = test system: RPMI-8226 leukemia
# HT29 colon = test system: HT29 colon
# MCF7 breast = test system: MCF7 breast
# SR leukemia = test system: SR leukemia
# CCRF-CEM leukemia = test system: CCRF-CEM leukemia
# OVCAR-8 ovarian = test system: OVCAR-8 ovarian
# HL-60(TB) leukemia = test system: HL-60(TB) leukemia
# T-47D breast = test system: T-47D breast
# SNB-75 CNS = test system: SNB-75 CNS
# SN12C renal = test system: SN12C renal
# MOLT-4 leukemia = test system: MOLT-4 leukemia
# SK-OV-3 ovarian = test system: SK-OV-3 ovarian
# M14 melanoma = test system: M14 melanoma
# A498 renal = test system: A498 renal
# U251 CNS = test system: U251 CNS
# UACC-257 melanoma = test system: UACC-257 melanoma
structure (smiles),measurement,setting,value
CCC(=O)c1c(C(F)(F)F)n([O-])c2cc(N3CCNCC3)c(F)cc2[n+]1=O,TGI,COLO 205 colon,10.8 µM
same,GI50,HCT-116 colon,1.71 µM
same,TGI,HCT-116 colon,13.1 µM
same,GI50,MDA-MB-231 breast,4.17 µM
same,TGI,MDA-MB-231 breast,17.1 µM
same,GI50,SK-MEL-2 melanoma,2.7 µM
same,TGI,SK-MEL-2 melanoma,11.7 µM
same,GI50,OVCAR-4 ovarian,1.89 µM
same,TGI,OVCAR-4 ovarian,25 µM
same,GI50,MDA-MB-435,4.95 µM
same,TGI,MDA-MB-435,17.3 µM
same,GI50,ACHN renal,1.55 µM
same,TGI,ACHN renal,13.7 µM
same,GI50,786-0 renal,3.86 µM
same,TGI,786-0 renal,17.6 µM
same,GI50,SF-268 CNS,4.76 µM
same,TGI,SF-268 CNS,21.1 µM
same,GI50,UACC-62 melanoma,2.27 µM
same,TGI,UACC-62 melanoma,11.9 µM
same,GI50,HOP-92 NSCLC,2.69 µM
same,TGI,HOP-92 NSCLC,17.5 µM
same,GI50,HS 578T breast,2.74 µM
same,TGI,HS 578T breast,21.3 µM
same,GI50,RPMI-8226 leukemia,2.17 µM
same,TGI,RPMI-8226 leukemia,12.2 µM
same,GI50,HT29 colon,2.1 µM
same,TGI,HT29 colon,18.5 µM
same,GI50,MCF7 breast,3.48 µM
same,TGI,MCF7 breast,19.8 µM
same,GI50,SR leukemia,1.53 µM
same,TGI,SR leukemia,21.9 µM
same,GI50,CCRF-CEM leukemia,2.05 µM
same,TGI,CCRF-CEM leukemia,22.9 µM
same,GI50,OVCAR-8 ovarian,2.38 µM
same,TGI,OVCAR-8 ovarian,11.7 µM
same,GI50,HL-60(TB) leukemia,1.18 µM
same,TGI,HL-60(TB) leukemia,6.68 µM
same,GI50,T-47D breast,2.81 µM
same,TGI,T-47D breast,19.1 µM
same,GI50,SNB-75 CNS,1.77 µM
same,TGI,SNB-75 CNS,12.5 µM
same,GI50,SN12C renal,2.73 µM
same,TGI,SN12C renal,14.6 µM
same,GI50,MOLT-4 leukemia,2.03 µM
same,TGI,MOLT-4 leukemia,34.5 µM
same,GI50,SK-OV-3 ovarian,1.97 µM
same,TGI,SK-OV-3 ovarian,10.4 µM
same,GI50,M14 melanoma,3.28 µM
same,TGI,M14 melanoma,14.2 µM
same,GI50,A498 renal,1.67 µM
same,TGI,A498 renal,11.1 µM
same,GI50,U251 CNS,5.04 µM
same,TGI,U251 CNS,19.9 µM
same,GI50,UACC-257 melanoma,3.22 µM
same,TGI,UACC-257 melanoma,13 µM
